Patent US6451836B1, “Method of inhibiting liver glycogen phosphorylase with 2-alkylpyrrolidines” (Novo Nordisk A/S, priority 1995, dated 2002)
Like-named read-outs stand apart in the source and are kept apart here.

Experiments:
[1] = system: type 2 diabetic patients; settings: Sels et al. (Netherland J.Med. 44 (1994), 198); cited from earlier work
[2] = system: female ob/OB mice; experiment: glucagon mediated increase in blood glucose in mice; assay type: in vivo; settings: for Delta plasma glucose: glucagon s.c., female ob/OB mice fasted 3 hours, averages ± S.D., N = 5, control 6.3 ± 1.0; for reduction of blood glucose (in words): glucagon mediated increase in blood glucose in mice, Table 1
Description: For in vivo studies, female ob/OB mice (20 g) fasted for 3 hours were used. Test compounds or NaCl (0.9%; controls) were administered intraveneously (hereinafter designated i.v.). Glucagon were administered subcutaneously (herein-after designated s.c.) in order to increase hepatic glucose output derived from glycogen. Blood samples were drawn from the orbital vain and analyzed for glucose using a glucose oxidase method.

[3] = system: Rat hepatocytes; experiment: baseline and glucagon stimulated glucose production from cultured liver cells; assay type: cell-based; settings: for Glucose production without glucagon: relative to the basal glucose production (no addition 100%); for Glucose production without glucagon / Glucose production with glucagon (0.5 nM): 70 minutes; for Glucose production with glucagon (0.5 nM): relative to the basal glucose production (no addition 233%); for inhibition of hepatocyte glucose production (in words): basal and glucagon stimulated
Description: During the last 24 hours, the hepatocytes were cultured in the presence of high levels of insulin (5 nM) and glucose (15 mM), which result in the incorporation of glucose into glycogen. Therefore, at the time of the experiment, the cells mimic livers from fed animals. Experiments were initiated after 48 hours of culture by 2 times wash of cells and addition of a 20 mM HEPES experimental buffer including balanced salts, but without glucose. The test compound was added simultaneously with the experimental buffer. To some cultures, glucagon (0.5 nM) was added after 10 minutes in order to stimulate glucose production from liver cells. The glucose released into the media, reflecting the glucose production of the liver cells, was measured 70 minutes after the start of the experiment and standardized to cellular DNA content.

[4] = target: T1, Phosphorylase (Rattus norvegicus, UniProt P09811); experiment: activity of phosphorylase; assay type: biochemical; settings: read-out: Phosphorlyase, concentration resulting in half maximal activity (I.C.50)
T1 sequence (P09811 2-850): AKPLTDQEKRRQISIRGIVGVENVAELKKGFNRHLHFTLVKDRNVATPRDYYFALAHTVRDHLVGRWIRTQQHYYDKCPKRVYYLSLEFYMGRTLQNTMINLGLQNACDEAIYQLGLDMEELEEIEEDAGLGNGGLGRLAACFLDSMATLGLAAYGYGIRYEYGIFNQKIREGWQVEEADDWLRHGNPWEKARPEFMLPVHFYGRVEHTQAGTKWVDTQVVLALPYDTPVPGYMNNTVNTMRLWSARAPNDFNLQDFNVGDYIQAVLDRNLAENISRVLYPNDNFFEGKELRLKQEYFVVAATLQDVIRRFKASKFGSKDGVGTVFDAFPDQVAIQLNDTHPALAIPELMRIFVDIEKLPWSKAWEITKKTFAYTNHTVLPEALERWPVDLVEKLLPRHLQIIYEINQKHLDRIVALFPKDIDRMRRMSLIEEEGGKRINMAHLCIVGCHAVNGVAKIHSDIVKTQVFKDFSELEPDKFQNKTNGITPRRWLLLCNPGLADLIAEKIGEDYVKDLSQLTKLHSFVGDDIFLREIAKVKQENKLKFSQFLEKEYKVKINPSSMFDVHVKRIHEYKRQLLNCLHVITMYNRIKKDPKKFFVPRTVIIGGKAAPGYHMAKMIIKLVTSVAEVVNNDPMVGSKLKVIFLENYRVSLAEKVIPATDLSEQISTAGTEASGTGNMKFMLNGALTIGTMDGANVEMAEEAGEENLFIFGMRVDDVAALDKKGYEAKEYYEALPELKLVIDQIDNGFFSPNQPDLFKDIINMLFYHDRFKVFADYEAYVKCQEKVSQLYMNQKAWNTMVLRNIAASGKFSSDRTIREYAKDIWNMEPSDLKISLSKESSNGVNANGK
Description: Phosphorylase was either purchased from Sigma or extracted from rat livers according to Stalmans et. al. (Eur.J.Biochem. 49 (1974), 415). The activity of phosphorylase was determined as described by Bergmeyer (1983; in: Meth. of Enzymatic Analysis, 2, 293-295, Weinheim, (ed.) Verlag Chemie).

[5] = target: T2, α-1,6-glucosidase (Homo sapiens, UniProt P35573); experiment: activity of the glycogen debranching enzyme, α-1,6-glucosidase; assay type: biochemical; settings: read-out: 1,6-glucosidase, concentration resulting in half maximal activity (I.C.50)
Description: The activity of the glycogen debranching enzyme, α-1,6-glucosidase, was determined as described by Brown and Brown (1966; in : Meth. in Enzymology, 8, 515-524, Neufeld and Ginsburg (Eds.) Academic Press).

[6] = target: T2, α-1,6-glucosidase; settings: From: Fleet et al. (Tetrahedron 20 (1986), 5685); read-out: 1,6-glucosidase, concentration resulting in half maximal activity (I.C.50); cited from earlier work

T2 sequence (P35573 whole entry): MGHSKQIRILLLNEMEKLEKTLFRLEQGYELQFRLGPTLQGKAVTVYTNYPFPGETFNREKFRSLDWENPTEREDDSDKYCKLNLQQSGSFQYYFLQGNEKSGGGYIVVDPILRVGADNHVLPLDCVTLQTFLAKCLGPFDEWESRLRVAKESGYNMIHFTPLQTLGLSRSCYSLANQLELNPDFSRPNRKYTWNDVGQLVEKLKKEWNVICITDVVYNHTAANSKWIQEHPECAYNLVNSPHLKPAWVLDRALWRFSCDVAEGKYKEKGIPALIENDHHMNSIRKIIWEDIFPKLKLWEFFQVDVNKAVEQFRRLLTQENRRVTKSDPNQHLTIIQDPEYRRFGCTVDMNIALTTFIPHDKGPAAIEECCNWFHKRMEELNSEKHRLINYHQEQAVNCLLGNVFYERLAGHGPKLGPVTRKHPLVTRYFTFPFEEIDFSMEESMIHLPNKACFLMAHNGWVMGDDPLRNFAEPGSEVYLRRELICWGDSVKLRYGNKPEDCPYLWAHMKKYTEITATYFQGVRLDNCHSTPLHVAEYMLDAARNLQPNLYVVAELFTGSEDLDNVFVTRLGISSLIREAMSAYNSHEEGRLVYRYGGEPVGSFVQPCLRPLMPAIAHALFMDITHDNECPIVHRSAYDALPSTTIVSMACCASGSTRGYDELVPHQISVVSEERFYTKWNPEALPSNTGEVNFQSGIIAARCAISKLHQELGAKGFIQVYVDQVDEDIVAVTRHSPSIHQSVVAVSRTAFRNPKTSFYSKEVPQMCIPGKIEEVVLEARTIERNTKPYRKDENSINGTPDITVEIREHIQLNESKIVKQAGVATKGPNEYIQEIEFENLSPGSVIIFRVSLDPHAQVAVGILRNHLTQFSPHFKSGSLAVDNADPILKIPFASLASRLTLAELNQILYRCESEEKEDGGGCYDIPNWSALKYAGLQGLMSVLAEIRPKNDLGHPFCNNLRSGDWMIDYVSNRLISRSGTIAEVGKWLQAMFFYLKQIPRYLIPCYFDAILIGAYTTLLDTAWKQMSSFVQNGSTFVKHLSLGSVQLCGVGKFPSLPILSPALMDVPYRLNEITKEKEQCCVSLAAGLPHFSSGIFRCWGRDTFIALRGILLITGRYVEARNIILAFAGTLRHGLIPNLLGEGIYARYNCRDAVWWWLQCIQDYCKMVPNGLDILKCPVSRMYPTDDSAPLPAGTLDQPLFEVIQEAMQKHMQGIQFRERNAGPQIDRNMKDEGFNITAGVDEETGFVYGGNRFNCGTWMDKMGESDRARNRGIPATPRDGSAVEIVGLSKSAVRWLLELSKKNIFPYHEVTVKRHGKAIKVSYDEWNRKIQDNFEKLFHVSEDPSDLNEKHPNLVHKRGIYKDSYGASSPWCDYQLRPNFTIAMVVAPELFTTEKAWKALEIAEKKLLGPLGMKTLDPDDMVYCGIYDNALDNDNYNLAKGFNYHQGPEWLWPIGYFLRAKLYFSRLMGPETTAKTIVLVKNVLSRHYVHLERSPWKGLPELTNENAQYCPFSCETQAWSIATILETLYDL

Structure (SMILES): OCCN1C[C@H](O)[C@@H](O)[C@H](O)[C@H]1CO [miglitol]
- fasting plasma glucose after treatment (in words) [1]: not reduced

Structure (SMILES): OC[C@H]1NC[C@H](O)[C@@H](O)[C@@H]1O [dNOJ, 1-deoxynojirimycin]
- Delta plasma glucose ([2]; 50 mg/kg i.v.): 5.7 ± 1.2 mmol/L
- reduction of blood glucose (in words) [2]: unable to reduce blood glucose
- Glucose production without glucagon ([3]; 50 μM): 92%
- Glucose production with glucagon (0.5 nM) ([3]; 50 μM): 195%
- inhibition of hepatocyte glucose production (in words) [3]: insufficient to suppress hepatic glucose production
- IC50 [4]: > 200000 nM
- IC50 [5]: 1100 nM

Structure (SMILES): Cl.OC[C@H]1NC[C@@H](O)[C@@H]1O [Compound 2, (2R,3R,4R)-3,4-Dihydroxy-2-(hydroxymethyl)pyrrolidine, hydrochloride]
- Delta plasma glucose ([2]; 8 mg/kg i.v.): 0.5 ± 0.6 mmol/L
- reduction of blood glucose (in words) [2]: potent principle for reducing blood glucose
- Glucose production without glucagon ([3]; 1 μM): 19%
- Glucose production with glucagon (0.5 nM) ([3]; 1 μM): 41%
- inhibition of hepatocyte glucose production (in words) [3]: inhibit basal and glucagon stimulated hepatocyte glucose production
- IC50 [6]: 180 nM
